In EP1260232A1, “REMEDIES FOR MALIGNANT TUMOR-CONCOMITANT NEUROSIS AND AZOOR OR ANALOGOUS DISEASES THEREOF” (priority 2000, dated 2001):

What was measured:
apoptosis caused by CAR = test: Therapeutic effect on cancer-associated neuropathy: ERG in rats after intravitreal anti-recoverin and anti-hsp70 antibodies; assay type: in vivo; details: Lewis rats, light for 24 hours; nilvadipine 3.2 mg/kg/day peritoneal for two weeks with antibody infusion into vitreous body; follow-up five weeks; compared with predonine 0.6 µg/kg/day i.m. and cyclosporine A 10 mg/kg/day i.m.; Fig. 1
Protocol: Test animal: Lewis rats (8 weeks of age) Treatment group 5 animals (10 eyes) Control group 5 animals (10 eyes) Photoenvironment: Apoptosis (cell death) was induced under light for 24 hours. Test drugs: Nilvadipine (3.2 mg/kg/day) by peritoneal administration (dissolving solution) polyethylene glycol 400: ethanol: water = 1:1:2 Predonine (0.6 µg/kg/day) by intramuscular injection (dissolving solution) PBS (phosphate buffer solution) Cyclosporine A (10 mg/kg/day) by intramuscular injection (dissolving solution) olive oil Antibodies: anti-recoverin antibody (5 µl/eye) anti-hsp70 antibody (5 µl/eye) Administration method: Test drugs were administered for two weeks along with infusion of antibodies into vitreous body of the eye. Follow-up observation was performed for five weeks after the start of administration. PBS alone was administered to the control group.
In Fig. 1, the vertical axis represents ERG (electroretinogram) amplitude, and the horizontal axis is the lapse of time in weeks. Δ: nilvadipine group; □: predonine group; ◇: cyclosporin A group; and ○: control group.

[1] = Clinical case: therapeutic effect on AZOOR, static visual field examination (Humphrey visual field analyzer); assay type: in vivo; details: one AZOOR patient
Text: Case: History of the present illness: The patient became aware of dark and blurred vision in the center of their visual field on September 1, 1999, and visited Ohyachi Kyoritsu Eye Clinic on September 4 in the same year.. […] ERG was subnormal and normal for the right and left eyes, respectively. […] FAG detected mild leakage of fluorescein from the optic disc of the right eye. In view of these observations, optic nerve disorder was suspected and the patient was made to visit a brain surgeon in the neighborhood to receive CT and MRT examinations. However, no abnormality was found. […] To treat the eye symptom, the clinic prescribed oral medications such as drug for ameliorating circulation for a while, but no improvement of visual field was observed. Thus, on October 1, 1999, the patient was referred to the Department of ophthalmology at Sapporo Medical University, School of Medicine for close examination. Results of the first examination: Visual acuity was Vd=1.2 and Vs=1.2. Although pupils were round and equal in size, the right eye was RAPD(+) but no oculomotor abnormalities were observed. […] In the static visual field examination, reduction of the sensitivity in the central visual field was observed. Course of disease: Oral administration of prednisolone (40mg/day) was started on October 1, 1999. […]

Structure (SMILES) | ERG (electroretinogram) amplitude (apoptosis caused by CAR) | static visual field examination / visual sensitivity ([1]; two months after start of oral nilvadipine, following 0.3 ml Depo-Medrol sub-Tenon's injection to both eyes, Figs. 4 and 5) | visual field ([1]; oral prednisolone 40 mg/day reduced stepwise to 10 mg/day, October-November 1999, Figs. 2 and 3)
COC(=O)C1=C(C#N)NC(C)=C(C(=O)OC(C)C)C1c1cccc([N+](=O)[O-])c1 (stereo not drawn) [nilvadipine, isopropyl 6-cyano-5-methoxycarbonyl-2-methyl-4-(3-nitrophenyl)-1,4-di hydropyridine-3-carboxylate ester] | more effective than predonine and cyclosporin A | remarkable improvement of visual sensitivity | 
C[C@]12C=CC(=O)C=C1CC[C@@H]1[C@@H]2[C@@H](O)C[C@@]2(C)[C@H]1CC[C@]2(O)C(=O)CO [prednisolone] |  |  | could not improve the visual field
